In patent publication US6355799B1, “Substituted benzene compounds, process for their preparation, and herbicidal and defoliant compositions containing them” (ISK Americas Incorporated, priority 1997, dated 2002):

Columns and labels:
Type in all cases: in vivo
[1] = tested on: barnyardgrass (Echinochloa crus-galli, ECHCG); assay: Post-emerge test, greenhouse herbicide activity screening; conditions: post-emerge, 14 days after application, rating scale 0-100
Outline: (§1)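 Plants grown in 10 cm pots of sandy loam mix received acetone-dissolved compounds through a moving flat-fan nozzle. Doses ranged from 15 to 1000 g ai/ha. Pre-emerge pots were seeded one day earlier, post-emerge pots 8–21 days earlier. Fourteen days on, each pot was graded 0–100 for damage.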

[2] = tested on: common ragweed (Ambrosia artemisizfolia L., AMBEL); assay: as above; conditions: post-emerge, 14 days after application, rating scale 0-100
Outline: as §1

[3] = tested on: velvetleaf (Abutilon theophrasti, ABUTH); assay: as above; conditions: post-emerge, 14 days after application, rating scale 0-100
Outline: as §1

[4] = tested on: johnsongrass (Sorghum halepense, SORHA); assay: as above; conditions: post-emerge, 14 days after application, rating scale 0-100
Outline: as §1

[5] = tested on: green foxtail (Setaria viridis, SETVI); assay: as above; conditions: post-emerge, 14 days after application, rating scale 0-100
Outline: as §1

[6] = tested on: sicklepod (Cassia obtusifolia, CASOB); assay: as above; conditions: post-emerge, 14 days after application, rating scale 0-100
Outline: as §1

[7] = tested on: redroot pigweed (Amaranthus retroflexus, AMARE); assay: as above; conditions: post-emerge, 14 days after application, rating scale 0-100
Outline: as §1

[8] = tested on: lambsquarters (Chenopodium album, CHEAL); assay: as above; conditions: post-emerge, 14 days after application, rating scale 0-100
Outline: as §1

[9] = tested on: large crabgrass (Digitaria sanguinalis, DIGSA); assay: as above; conditions: post-emerge, 14 days after application, rating scale 0-100
Outline: as §1

[10] = tested on: ivyleaf morningglory (Ipomoea hederacea, IPOHE); assay: as above; conditions: post-emerge, 14 days after application, rating scale 0-100
Outline: as §1

[11] = tested on: redroot pigweed (Amaranthus retroflexus, AMARE); assay: Pre-emerge test, greenhouse herbicide activity screening; conditions: rated 14 days after application, 0 = no damage, 100 = complete death
Outline: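 Compounds in acetone were track-sprayed at 15-1000 g ai/ha (187 l/ha) on sandy loam pots: pre-emerge one day after seeding, post-emerge at 2-3 leaf stage with 0.25% v/v non-ionic surfactant. Phytotoxicity was rated 14 days later on a 0 (no damage) to 100 (complete death) scale.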

[12] = tested on: upland rice (Oryza sp., var. Tebonnet, RICE); assay: Post-emerge test, crop safety; conditions: post-emerge, 14 days after application, rating scale 0-100
Outline: as §1

[13] = tested on: field corn (Zea mays L., var. Dekalb 535, CORN); assay: Post-emerge test, crop safety; conditions: post-emerge, 14 days after application, rating scale 0-100
Outline: as §1

[14] = tested on: barnyardgrass (Echinochloa crus-galli, ECHCG); assay: Pre-emerge test, greenhouse herbicide activity screening; conditions: rated 14 days after application, 0 = no damage, 100 = complete death
Outline: (§2)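 Rating: 0–100 visual injury, 14 DAA. Application: acetone, 187 l/ha, 15–1000 g ai/ha, flat-fan track sprayer with nozzle 40–45 cm above soil or canopy. Post-emerge runs used 0.25% v/v surfactant on 2–3 leaf plants.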

[15] = tested on: common ragweed (Ambrosia artemisizfolia L., AMBEL); assay: as above; conditions: rated 14 days after application, 0 = no damage, 100 = complete death
Outline: as §2

[16] = tested on: velvetleaf (Abutilon theophrasti, ABUTH); assay: as above; conditions: rated 14 days after application, 0 = no damage, 100 = complete death
Outline: as §2

[17] = tested on: johnsongrass (Sorghum halepense, SORHA); assay: as above; conditions: rated 14 days after application, 0 = no damage, 100 = complete death
Outline: as §2

[18] = tested on: green foxtail (Setaria viridis, SETVI); assay: as above; conditions: rated 14 days after application, 0 = no damage, 100 = complete death
Outline: as §2

[19] = tested on: sicklepod (Cassia obtusifolia, CASOB); assay: as above; conditions: rated 14 days after application, 0 = no damage, 100 = complete death
Outline: as §2

[20] = tested on: lambsquarters (Chenopodium album, CHEAL); assay: as above; conditions: rated 14 days after application, 0 = no damage, 100 = complete death
Outline: as §2

[21] = tested on: large crabgrass (Digitaria sanguinalis, DIGSA); assay: as above; conditions: rated 14 days after application, 0 = no damage, 100 = complete death
Outline: as §2

[22] = tested on: ivyleaf morningglory (Ipomoea hederacea, IPOHE); assay: as above; conditions: rated 14 days after application, 0 = no damage, 100 = complete death
Outline: as §2

[23] = tested on: upland rice (Oryza sp., var. Tebonnet, RICE); assay: Pre-emerge test, crop safety; conditions: rated 14 days after application, 0 = no damage, 100 = complete death
Outline: (§3)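 Herbicidal damage is scored 0 (none) to 100 (complete plant death) two weeks after a simulated field spray. Rates span 15–1000 g ai/ha, delivered in acetone at 187 l/ha. For post-emergence treatments, plants have 2–3 leaves and the spray carries 0.25% v/v non-ionic surfactant.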

[24] = tested on: field corn (Zea mays L., var. Dekalb 535, CORN); assay: Pre-emerge test, crop safety; conditions: rated 14 days after application, 0 = no damage, 100 = complete death
Outline: as §3

COc1c(Cl)cc(F)c(-n2c(=O)cc(C(F)(F)F)n(C)c2=O)c1NC(=O)c1ccc(C#N)cc1 [2-67]
99: phytotoxicity rating IPOHE ([10]; 63 g ai/ha) | Pre-emerge phytotoxicity rating (0-100), crop damage, CORN ([24]; 250 g ai/ha)
20: phytotoxicity rating SETVI ([5]; 63 g ai/ha) | phytotoxicity rating CORN ([13]; 63 g ai/ha)
50: Pre-emerge Herbicidal Activity, phytotoxicity rating (0-100), ECHCG ([14]; 63 g ai/ha)
0: phytotoxicity rating ECHCG ([1]; 63 g ai/ha) | phytotoxicity rating SORHA ([4]; 63 g ai/ha) | phytotoxicity rating DIGSA ([9]; 63 g ai/ha)
70: phytotoxicity rating RICE ([12]; 63 g ai/ha)
30: phytotoxicity rating SETVI ([5]; 250 g ai/ha)
95: phytotoxicity rating CORN ([13]; 250 g ai/ha) | Pre-emerge Herbicidal Activity, phytotoxicity rating (0-100), ECHCG ([14]; 250 g ai/ha)
100: phytotoxicity rating AMBEL ([2]; 63 g ai/ha) | phytotoxicity rating AMBEL ([2]; 250 g ai/ha) | phytotoxicity rating ABUTH ([3]; 63 g ai/ha) | phytotoxicity rating ABUTH ([3]; 250 g ai/ha) | phytotoxicity rating CASOB ([6]; 63 g ai/ha) | phytotoxicity rating CASOB ([6]; 250 g ai/ha) | phytotoxicity rating AMARE ([7]; 63 g ai/ha) | phytotoxicity rating AMARE ([7]; 250 g ai/ha) | phytotoxicity rating CHEAL ([8]; 63 g ai/ha) | phytotoxicity rating CHEAL ([8]; 250 g ai/ha) | phytotoxicity rating IPOHE ([10]; 250 g ai/ha) | Pre-emerge Herbicidal Activity, phytotoxicity rating (0-100), AMARE ([11]; 63 g ai/ha) | Pre-emerge Herbicidal Activity, phytotoxicity rating (0-100), AMARE ([11]; 250 g ai/ha) | Pre-emerge Herbicidal Activity, phytotoxicity rating (0-100), AMBEL ([15]; 63 g ai/ha) | Pre-emerge Herbicidal Activity, phytotoxicity rating (0-100), AMBEL ([15]; 250 g ai/ha) | Pre-emerge Herbicidal Activity, phytotoxicity rating (0-100), ABUTH ([16]; 63 g ai/ha) | Pre-emerge Herbicidal Activity, phytotoxicity rating (0-100), ABUTH ([16]; 250 g ai/ha) | Pre-emerge Herbicidal Activity, phytotoxicity rating (0-100), SORHA ([17]; 250 g ai/ha) | Pre-emerge Herbicidal Activity, phytotoxicity rating (0-100), SETVI ([18]; 63 g ai/ha) | Pre-emerge Herbicidal Activity, phytotoxicity rating (0-100), SETVI ([18]; 250 g ai/ha) | Pre-emerge Herbicidal Activity, phytotoxicity rating (0-100), CASOB ([19]; 63 g ai/ha) | Pre-emerge Herbicidal Activity, phytotoxicity rating (0-100), CASOB ([19]; 250 g ai/ha) | Pre-emerge Herbicidal Activity, phytotoxicity rating (0-100), CHEAL ([20]; 63 g ai/ha) | Pre-emerge Herbicidal Activity, phytotoxicity rating (0-100), CHEAL ([20]; 250 g ai/ha) | Pre-emerge Herbicidal Activity, phytotoxicity rating (0-100), DIGSA ([21]; 63 g ai/ha) | Pre-emerge Herbicidal Activity, phytotoxicity rating (0-100), DIGSA ([21]; 250 g ai/ha) | Pre-emerge Herbicidal Activity, phytotoxicity rating (0-100), IPOHE ([22]; 63 g ai/ha) | Pre-emerge Herbicidal Activity, phytotoxicity rating (0-100), IPOHE ([22]; 250 g ai/ha)
90: Pre-emerge phytotoxicity rating (0-100), crop damage, RICE ([23]; 63 g ai/ha) | Pre-emerge phytotoxicity rating (0-100), crop damage, RICE ([23]; 250 g ai/ha) | Pre-emerge phytotoxicity rating (0-100), crop damage, CORN ([24]; 63 g ai/ha)
80: phytotoxicity rating SORHA ([4]; 250 g ai/ha) | phytotoxicity rating RICE ([12]; 250 g ai/ha) | Pre-emerge Herbicidal Activity, phytotoxicity rating (0-100), SORHA ([17]; 63 g ai/ha)
40: phytotoxicity rating ECHCG ([1]; 250 g ai/ha) | phytotoxicity rating DIGSA ([9]; 250 g ai/ha)
